Results published in patent publication US10245275B2 (ViiV HEALTHCARE UK (NO.4) LIMITED, priority 2014, dated 2019).
Like-named read-outs stand apart in the source and are kept apart here.

What was measured:
[1] = test system: WT (wild-type HIV virus; recombinant NL4-3 virus); experiment: microbe, parasite or virus in culture; assay type: cell-based, HIV-1
Description: (§1) MT-2 cells and 293T cells were obtained from the NIH AIDS Research and Reference Reagent Program. MT-2 cells were propagated in RPMI 1640 media supplemented with 10% heat-inactivated fetal bovine serum, […]. The 293T cells were propagated in DMEM media supplemented with 10% heat-inactivated fetal bovine serum (FBS), 100 units/mL penicillin G and 100 μg/mL streptomycin. […] A recombinant NL4-3 virus, in which a section of the nef gene from NL4-3 was replaced with the Renilla luciferase gene, was used as a reference virus. In addition, residue Gag P373 was converted to P373S. […] Transfections were performed in 293T cells using LipofectAMINE PLUS from Invitrogen (Carlsbad, Calif.), according to manufacturer's instruction. The virus was titered in MT-2 cells using luciferase enzyme activity as a marker. Luciferase was quantitated using the Dual Luciferase kit from Promega (Madison, Wis.), with modifications to the manufacturer's protocol. The diluted Passive Lysis solution was pre-mixed with the re-suspended Luciferase Assay Reagent and the re-suspended Stop & Glo Substrate (2:1:1 ratio). Fifty (50) μL of the mixture was added to each aspirated well on assay plates and luciferase activity was measured immediately on a Wallac TriLux (Perkin-Elmer). Antiviral activities of inhibitors toward the recombinant virus were quantified by measuring luciferase activity in cells infected for 4-5 days with NLRluc recombinants in the presence serial dilutions of the inhibitor.
WT refers to wild-type HIV virus. […]

[2] = test system: HIV-1 NL4-3 gag A364V virus; experiment: microbe, parasite or virus in culture; assay type: cell-based
Description: as §1
Both recombinant viruses were used as described above in the HIV cell culture assay for the NL4-3 virus.

[3] = Human immunodeficiency virus 1, NL43, MT2, read-out: WT (EC50, uM), Table 1 regular screen, class symbol
[4] = Human immunodeficiency virus 1, NL43, MT2, read-out: A364V (EC50, uM), Table 1 regular screen, class symbol
[5] = Human immunodeficiency virus 1, NL43, MT2, read-out: WT (EC50, uM), Table 1 regular screen, MT-2 cells, luciferase readout
[6] = Human immunodeficiency virus 1, NL43, MT2, read-out: A364V (EC50, uM), Table 1 regular screen, MT-2 cells, luciferase readout

Row | SMILES | EC50 [1, 3] | EC50 [2, 4] | EC50 [1, 5] | EC50 [2, 6] | other results
1 | C=C(C)[C@@H]1CC[C@]2(NCCN3CCS(=O)(=O)CC3C(=O)OCC)CC[C@]3(C)[C@H](CC[C@@H]4[C@@]5(C)CC=C(C6=CC[C@@](CF)(C(=O)O)CC6)C(C)(C)[C@@H]5CC[C@]43C)[C@@H]12 (single isomer, unassigned) [Example 14] | < 0.05 µM | < 0.05 µM |  |  | 
2 | C=C(C)[C@@H]1CC[C@]2(NC(CN)C(F)(F)F)CC[C@]3(C)[C@H](CC[C@@H]4[C@@]5(C)CC=C(C6=CC[C@](CF)(C(=O)O)CC6)C(C)(C)[C@@H]5CC[C@]43C)[C@@H]12 (single isomer, unassigned) [Example 39] |  |  | 0.0473 µM | 2.03 µM | 
3 | C=C(C)[C@@H]1CC[C@]2(NC(CN)C(F)(F)F)CC[C@]3(C)[C@H](CC[C@@H]4[C@@]5(C)CC=C(C6=CC[C@](CF)(C(=O)O)CC6)C(C)(C)[C@@H]5CC[C@]43C)[C@@H]12 (single isomer, unassigned) [Example 40] |  |  |  |  | EC50 ([1]; read-out: WT (EC50), Table 1 regular screen, MT-2 cells, luciferase readout): 0.0687 µM; EC50 ([2]; read-out: A364V (EC50), Table 1 regular screen, MT-2 cells, luciferase readout): 3 µM
4 | C=C(C)[C@@H]1CC[C@]2(NC(CN3CCS(=O)(=O)CC3)C(F)(F)F)CC[C@]3(C)[C@H](CC[C@@H]4[C@@]5(C)CC=C(C6=CC[C@](CF)(C(=O)O)CC6)C(C)(C)[C@@H]5CC[C@]43C)[C@@H]12 (single isomer, unassigned) [Example 42] | > 0.05 µM | > 0.05 µM |  |  | 
5 | C=C(C)[C@@H]1CC[C@]2(NCCN3C[C@@H]4CC3CS4(=O)=O)CC[C@]3(C)[C@H](CC[C@@H]4[C@@]5(C)CC=C(C6=CC[C@](CF)(C(=O)O)CC6)C(C)(C)[C@@H]5CC[C@]43C)[C@@H]12 (stereo in doubt) [Example 4, (S)-4-((1R,3aS,5aR,5bR,7aR,11aS,11bR,13aR,13bR)-3a-((2-((1S,4S)-2,2-dioxido-2-thia-5-azabicyclo[2.2.1]heptan-5-yl)ethyl)amino)-5a,5b, 8,8,11a-pentamethyl-1-(prop-1-en-2-yl)-2,3,3a,4,5,5a,5b,6,7,7a,8,11,11a,11b,12,13,13a,13b-octadecahydro-1H-cyclopenta[a]chrysen-9-yl)-1-(fluoromethyl)cyclohex-3-enecarboxylic acid] |  |  | 0.00141 µM | 0.0392 µM | 
6 | C=C(C)[C@@H]1CC[C@]2(NCCC(C)(C)O)CC[C@]3(C)[C@H](CC[C@@H]4[C@@]5(C)CC=C(C6=CC[C@](CF)(C(=O)O)CC6)C(C)(C)[C@@H]5CC[C@]43C)[C@@H]12 [Example 2-1, (S)-1-(fluoromethyl)-4-((1R,3aS,5aR,5bR,7aR,11aS,11bR,13aR,13bR)-3a-((3-hydroxy-3-methylbutyl)amino)-5a,5b,8,8,11a-pentamethyl-1-(prop-1-en-2-yl)-2,3,3a,4,5,5a,5b,6,7,7a,8,11,11a,11b,12,13,13a,13b-octadecahydro-1H-cyclopenta[a]chrysen-9-yl)cyclohex-3-enecarboxylic acid] | < 0.05 µM | > 0.05 µM |  |  | 
7 | C=C(C)[C@@H]1CC[C@]2(NCC(C)(C)O)CC[C@]3(C)[C@H](CC[C@@H]4[C@@]5(C)CC=C(C6=CC[C@](CF)(C(=O)O)CC6)C(C)(C)[C@@H]5CC[C@]43C)[C@@H]12 [Example 2-2, (S)-1-(fluoromethyl)-4-((1R,3aS,5aR,5bR,7aR,11aS,11bR,13aR,13bR)-3a-((2-hydroxy-2-methylpropyl)amino)-5a,5b,8,8,11a-pentamethyl-1-(prop-1-en-2-yl)-2,3,3a,4,5,5a,5b,6,7,7a,8,11,11a,11b,12,13,13a,13b-octadecahydro-1H-cyclopenta[a]chrysen-9-yl)cyclohex-3-enecarboxylic acid] | < 0.05 µM | > 0.05 µM |  |  | 
8 | C=C(C)[C@@H]1CC[C@]2(NCCCC(C)(C)O)CC[C@]3(C)[C@H](CC[C@@H]4[C@@]5(C)CC=C(C6=CC[C@](CF)(C(=O)O)CC6)C(C)(C)[C@@H]5CC[C@]43C)[C@@H]12 [Example 2-3, (S)-1-(fluoromethyl)-4-((1R,3aS,5aR,5bR,7aR,11aS,11bR,13aR,13bR)-3a-((4-hydroxy-4-methylpentyl)amino)-5a,5b,8,8,11a-pentamethyl-1-(prop-1-en-2-yl)-2,3,3a,4,5,5a,5b,6,7,7a,8,11,11a,11b,12,13,13a,13b-octadecahydro-1H-cyclopenta[a]chrysen-9-yl)cyclohex-3-enecarboxylic acid] | < 0.05 µM | > 0.05 µM |  |  | 
9 | C=C(C)[C@@H]1CC[C@]2(NCCC(O)(CC)CC)CC[C@]3(C)[C@H](CC[C@@H]4[C@@]5(C)CC=C(C6=CC[C@](CF)(C(=O)O)CC6)C(C)(C)[C@@H]5CC[C@]43C)[C@@H]12 [Example 2-4, (S)-4-((1R,3aS,5aR,5bR,7aR,11aS,11bR,13aR,13bR)-3a-((3-ethyl-3-hydroxypentyl)amino)-5a,5b,8,8,11a-pentamethyl-1-(prop-1-en-2-yl)-2,3,3a,4,5,5a,5b,6,7,7a,8,11,11a,11b,12,13,13a,13b-octadecahydro-1H-cyclopenta[a]chrysen-9-yl)-1-(fluoromethyl)cyclohex-3-enecarboxylic acid] | < 0.05 µM | > 0.05 µM |  |  | 
10 | C=C(C)[C@@H]1CC[C@]2(NCC=C(C3CC3)C3CC3)CC[C@]3(C)[C@H](CC[C@@H]4[C@@]5(C)CC=C(C6=CC[C@](CF)(C(=O)O)CC6)C(C)(C)[C@@H]5CC[C@]43C)[C@@H]12 [Example 2-6, (S)-4-((1R,3aS,5aR,5bR,7aR,11aS,11bR,13aR,13bR)-3a-((3,3-dicyclopropylallyl)amino)-5a,5b,8,8,11a-pentamethyl-1-(prop-1-en-2-yl)-2,3,3a,4,5,5a,5b,6,7,7a,8,11,11a,11b,12,13,13a,13b-octadecahydro-1H-cyclopenta[a]chrysen-9-yl)-1-(fluoromethyl)cyclohex-3-enecarboxylic acid] |  |  | 0.011 µM | 3 µM | 
11 | C=C(C)[C@@H]1CC[C@]2(NCCC(C)C)CC[C@]3(C)[C@H](CC[C@@H]4[C@@]5(C)CC=C(C6=CC[C@](CF)(C(=O)O)CC6)C(C)(C)[C@@H]5CC[C@]43C)[C@@H]12 [Example 2-7, (S)-1-(fluoromethyl)-4-((1R,3aS,5aR,5bR,7aR,11aS,11bR,13aR,13bR)-3a-(isopentylamino)-5a,5b,8,8,11a-pentamethyl-1-(prop-1-en-2-yl)-2,3,3a,4,5,5a,5b,6,7,7a,8,11,11a,11b,12,13,13a,13b-octadecahydro-1H-cyclopenta[a]chrysen-9-yl)cyclohex-3-enecarboxylic acid] |  |  | 0.116 µM | 3 µM | 
12 | C=C(C)[C@@H]1CC[C@]2(NCC(O)CN3CCS(=O)(=O)CC3)CC[C@]3(C)[C@H](CC[C@@H]4[C@@]5(C)CC=C(C6=CC[C@](CF)(C(=O)O)CC6)C(C)(C)[C@@H]5CC[C@]43C)[C@@H]12 (stereo partly drawn) [Example 2-8, (1S)-4-((1R,3aS,5aR,5bR,7aR,11aS,11bR,13aR,13bR)-3a-((3-(1,1-dioxidothiomorpholino)-2-hydroxypropyl)amino)-5a,5b, 8,8,11a-pentamethyl-1-(prop-1-en-2-yl)-2,3,3a,4,5,5a,5b,6,7,7a,8,11,11a,11b,12,13,13a,13b-octadecahydro-1H-cyclopenta[a]chrysen-9-yl)-1-(fluoromethyl)cyclohex-3-enecarboxylic acid] |  |  | 0.00233 µM | 1.91 µM | 
